The record followed here is US8536201B2, “Pesticidal arylpyrrolidines” (Bayer Intellectual Property GmbH, priority 2009, dated 2013).

What all share (type): in vivo
For test [1], the system named is Tetranychus urticae. The experiment in a line: Two-spotted spider mite Tetranychus urticae spray test on kidney bean. Conditions: 20 ppm, adult mites, after 7 days. The protocol:
BIOLOGICAL TEST EXAMPLE 2
Two-Spotted Spider Mite Tetranychus urticae
50 to 100 adult mites of Tetranychus urticae were inoculated to leaves of kidney bean at two-leaf stage planted in a pot of 6 cm in diameter. After one day, test solution at the appropriate concentration was sprayed thereon in a sufficient amount using a spray gun. After the spraying, the plant pot was placed inside a greenhouse, and after 7 days, the acaricidal activity was calculated. An acaricidal activity of 100% means that all mites were killed, an acaricidal activity of 0% means that no mite was killed.

Test [2] relates to Spodoptera litura. The experiment in a line: Tobacco cutworm (Spodoptera litura) larvae, sweet potato leaf dip test. Conditions: 20 ppm; third instar larvae, treated sweet potato leaves, after 7 days. The protocol:
Unless not mentioned otherwise, the test solutions were prepared as follows:
Solvent: dimethyl formamide, 3 parts by weight
Emulsifier: polyoxyethylene alkyl phenyl ether, 1 part by weight
To prepare the test solution, 1 part by weight of an active compound is mixed with the above-mentioned amount of solvent containing the above-mentioned amount of emulsifier, and the mixture is diluted with water to the desired concentration.
BIOLOGICAL TEST EXAMPLE 1.1
Tobacco Cutworm (Spodoptera litura) Larvae
Leaves of sweet potato were immersed in the test solution at the appropriate concentration, and the leaves were dried in air. The leaves were then placed in a petri dish having a diameter of 9 cm, and ten Spodoptera litura at third instar larvae were released therein. The petri dishes were placed in a temperature-controlled chamber at 25° C. After 2 days and 4 days more sweet potato leaves were added. After 7 days, the number of dead larvae was counted to calculate the insecticidal activity. An insecticidal activity of 100% means that all larvae were killed, whereas an insecticidal activity of 0% means that no larva was killed. In the current test, the results of two petri dishes for each treatment were averaged.

Test [3] has as its system Spodoptera litura. Briefly: Tobacco cutworm (Spodoptera litura) larvae using artificial diet. The note with it: 20 ppm, 3rd-instar larvae. The procedure:
BIOLOGICAL TEST EXAMPLE 1.2
Tobacco Cutworm (Spodoptera litura) Larvae Using Artificial Diet
2.3 g of artificial diet powder is put into a PET cup (7.5 cm diameter, 4 cm depth). The powder was leveled to make a layer in the bottom of the cup. 5 ml of a chemical solution is poured onto the powder and spread uniformly. The cup with treated diet powder is placed quiet to let the diet jell. Into each testing cup five 3rd-instar larvae were released. The testing cup is closed with the lid and placed in a temperature-controlled room at 25° C. and 50-60% R.H., 16L8D lighting conditions.
The mortality in % was determined according to the following criteria:
1 larva dead: 20% Efficacy
5 larvae dead: 100% Efficacy

Test [4] has as its system Aulacophora femoralis. Briefly: Cucurbit leaf beetle (Aulacophora femoralis) cucumber leaf dip test. Conditions: second instar larvae, treated cucumber leaves, after 7 days. The protocol: BIOLOGICAL TEST EXAMPLE 3
Cucurbit Leaf Beetle (Aulacophora femoralis)
Leaves of cucumber were immersed in the test solution at the appropriate concentration, and the leaves were dried in air. The leaves were then put in a plastic cup containing sterilized black soil and five Aulacophora femoralis at second instar larvae were released in the cup. The cups were placed in a temperature-controlled chamber at 25° C. After 7 days, the number of dead larvae was counted, and thus the insecticidal activity was calculated. An insecticidal activity of 100% means that all larvae were killed, whereas an insecticidal activity of 0% means that no larva was killed.

Molecules are shown by their SMILES.

With `CC(=O)N[C@@H](C)c1ccc(N2CCC(c3cc(Cl)c(Cl)c(Cl)c3)(C(F)(F)F)C2)cc1` (some centres unmarked) [Compound 6-b], the insecticidal activity in test [1], in test [2] and in test [3] was 100% in each case.

With `CCC(=O)N[C@@H](C)c1ccc(N2CCC(c3cc(Cl)cc(C(F)(F)F)c3)(C(F)(F)F)C2)cc1` (some centres unmarked) [Compound 4-b], the insecticidal activity in test [1], in test [2], in test [3] and in test [4] (20 ppm) was 100% in each case.

For the molecule `CC(=O)NC(C)c1ccc(N2CCC(c3cc(Cl)cc(Cl)c3)(C(F)(F)F)C2)cc1Cl` (centres unmarked) [Compound 3-66, reference compound], the insecticidal activity in test [2] was 20%; in test [4] (20 ppm), 50%.

Regarding `CCC(=O)NC(C)c1ccc(N2CCC(c3cc(Cl)c(Cl)c(Cl)c3)(C(F)(F)F)C2)cc1` (racemic) [Compound 7], the insecticidal activity in test [1], in test [2], in test [3] and in test [4] (100 ppm) was 100% each time.

With `C[C@H](NC(=O)c1c(F)cc(F)cc1F)c1ccc(N2CCC(c3cc(C(F)(F)F)cc(C(F)(F)F)c3)(C(F)(F)F)C2)cc1` (some centres unmarked) [Compound 16-b], the insecticidal activity in test [1], in test [3] and in test [4] (20 ppm) was 100% throughout.

For the molecule `C[C@H](NC(=O)CC1CC1)c1ccc(N2CCC(c3cc(C(F)(F)F)cc(C(F)(F)F)c3)(C(F)(F)F)C2)cc1` (some centres unmarked) [Compound 13-b], the insecticidal activity in test [1], in test [3] and in test [4] (100 ppm) was 100% in each case.

For the molecule `C[C@H](NC(=O)C1CC1)c1ccc(N2CCC(c3cc(C(F)(F)F)nc(C(F)(F)F)c3)(C(F)(F)F)C2)cc1` (stereo partly drawn) [Compound 17-b, N-[(1S)-1-(4-{3-[2,6-bis(trifluoromethyl)pyridin-4-yl]-3-(trifluoromethyl)pyrrolidin-1-yl}phenyl)ethyl]cyclopropanecarboxamide], the insecticidal activity in test [1], in test [3] and in test [4] (20 ppm) was 100% throughout.

Regarding `COCCC(=O)N[C@@H](C)c1ccc(N2CCC(c3cc(Cl)c(Cl)c(Cl)c3)(C(F)(F)F)C2)cc1` (some centres unmarked) [Compound 14-b], the insecticidal activity in test [1], in test [3] and in test [4] (100 ppm) was 100% each time.

With `CC(=O)NC(C)c1ccc(N2CCC(c3cc(C(F)(F)F)cc(C(F)(F)F)c3)(C(F)(F)F)C2)cc1` (racemic) [Compound 9], the insecticidal activity in test [2] and in test [3] was 100% throughout.

For the molecule `CCC(=O)N[C@@H](C)c1ccc(N2CCC(c3cc(Cl)cc(Cl)c3)(C(F)(F)F)C2)cc1` (some centres unmarked) [Compound 2-b], the insecticidal activity in test [2], in test [3] and in test [4] (20 ppm) was 100% each time.

For `CC(NC(=O)CC1CC1)c1ccc(N2CCC(c3cc(C(F)(F)F)cc(C(F)(F)F)c3)(C(F)(F)F)C2)cc1` (racemic) [Compound 13], the insecticidal activity in test [1] and in test [3] was 100% throughout.

Turning to `C[C@H](NC(=O)CC1CC1)c1ccc(N2CCC(c3cc(Cl)c(Cl)c(Cl)c3)(C(F)(F)F)C2)cc1` (some centres unmarked) [Compound 12-b], the insecticidal activity in test [1], in test [3] and in test [4] (100 ppm) was 100% each time.

Take `CC(=O)NC(C)c1ccc(N2CCC(c3cc(Cl)cc(Cl)c3)(C(F)(F)F)C2)cc1` (racemic) [Compound 1]: the insecticidal activity in test [2], in test [3] and in test [4] (100 ppm) was 100% in each case.

Take `CC(=O)NC(C)c1ccc(N2CCC(c3cc(Cl)c(Cl)c(Cl)c3)(C(F)(F)F)C2)cc1` (racemic) [Compound 6]: the insecticidal activity in test [1], in test [2] and in test [3] was 100% throughout.
